Laboratory results as given in US8835353B2, “Germination acceleration” (Valent BioSciences Corporation, priority 2007, dated 2014).
Each block holds one compound with its values, some of them ahead of it.

Experiments:
[1] = system: sweet corn (cv. Silver Queen); test: Pro-Mix study: seed treatment, coleoptile emergence and length at 10° C.; assay type: in vivo; details: ProMix at 10° C.
Protocol: (§1) For all seed treatments, 1 ppm active ingredient refers to 1 microgram active ingredient per gram of seed. For these studies, GA3, GA4/7, 6BA, or CPPU were each dispensed into a 15 ml centrifuge tube, and 2.5 ml of de-ionized water was then added to each tube. The solution was mixed on a vortex mixer and 0.25 ml of this solution was then placed in another 50 ml. centrifuge tube along with 10 grams of sweet corn seed (cv. Silver Queen) or field corn (cv. Hybrid 2652) seed and rotated 360° on a Labquake Rotissarie for 10 minutes to ensure proper seed coverage. To simulate commercial seed treatments, the amount of solutions was just sufficient to wet the seeds. Seeds were dried overnight in weigh boats.
Pro-Mix studies: Pro Mix potting media was cooled to 10° C. and then placed in a 20 inch×10 inch flat to a depth of 5 cm. A trough of twenty seeds/treatment were planted at a depth of 2 cm. Four trays of twenty seeds each were planted per treatment. The trays were incubated in a growth chamber set at 10° C., 16 hour light cycle. Corn emergence counts were made daily.
Sweet corn (cv. Silver Queen) seeds were treated with solutions containing GA4/7, 6BA, or GA4/7 and 6BA, planted into ProMix soil, and held at 10° C. At 22 days after treatment, more seedlings from seeds treated with the combination treatment of GA4/7 and 6BA had emerged than seeds treated with 6BA or GA4/7 alone (Table 2).
Sweet corn (cv. Silver Queen) seeds were treated with solutions containing GA3, 6BA, or GA3 and 6BA, planted into ProMix soil, and held at 10° C.

[2] = system: hybrid field corn (Hybrid 2652); test: Petri plate study: seed treatment, coleoptile emergence at 10° C.; assay type: in vivo; details: 6BA 10 ppm, petri plates at 10° C.
Protocol: For all seed treatments, 1 ppm active ingredient refers to 1 microgram active ingredient per gram of seed. For these studies, GA3, GA4/7, 6BA, or CPPU were each dispensed into a 15 ml centrifuge tube, and 2.5 ml of de-ionized water was then added to each tube. The solution was mixed on a vortex mixer and 0.25 ml of this solution was then placed in another 50 ml. centrifuge tube along with 10 grams of sweet corn seed (cv. Silver Queen) or field corn (cv. Hybrid 2652) seed and rotated 360° on a Labquake Rotissarie for 10 minutes to ensure proper seed coverage. To simulate commercial seed treatments, the amount of solutions was just sufficient to wet the seeds. […] Petri plate studies: Each standard petri plate (100 mm×50 mm) contained 1 blue Anchor germination circle (3¼ inches in diameter) drenched with 7 ml of de-ionized water cooled to 10° C. Each treatment consisted of 4 petri plates of 10 seeds each. After plating, the petri plates were placed in a Nalgene plastic container cooled to 10° C. This in turn was incubated in a 10° C. growth chamber with a 16 hour light cycle for the duration of the study. Counts were made by visually examining each seed for radicle and coleoptile protrusion. Hybrid field corn seeds (cv. Hybrid 2652) were treated with solutions containing GA4/7 or 6BA or combinations of GA4/7 and 6BA, plated onto wetted paper in a petri plate, and held at 10° C.

[3] = system: sweet corn (cv. Silver Queen); test: Pouch study: seed treatment, coleoptile and radicle growth at 10° C.; assay type: in vivo; details: 6BA 10 ppm, pouches at 10° C.
Protocol: For all seed treatments, 1 ppm active ingredient refers to 1 microgram active ingredient per gram of seed. For these studies, GA3, GA4/7, 6BA, or CPPU were each dispensed into a 15 ml centrifuge tube, and 2.5 ml of de-ionized water was then added to each tube. The solution was mixed on a vortex mixer and 0.25 ml of this solution was then placed in another 50 ml. centrifuge tube along with 10 grams of sweet corn seed (cv. Silver Queen) or field corn (cv. Hybrid 2652) seed and rotated 360° on a Labquake Rotissarie for 10 minutes to ensure proper seed coverage. To simulate commercial seed treatments, the amount of solutions was just sufficient to wet the seeds. […] Pouch studies: A CYG germination pouch was drenched with 17 ml of 10° C. de-ionized water. Three treated seeds were placed in the trough of the germination paper, contained within the pouch. Pouches were placed in a Nalgene plastic container cooled to 10° C. The container was incubated in a 10° C. growth chamber with a 16 hour light cycle for the duration of the study. Seedling coleoptiles and radicles were measured by removing the seedling from the pouch and measuring with a ruler. […] The amount of applied is expressed as ppm or micrograms of compound per gram of seed. […]

seedlings = test: Preliminary studies: seedling quality and radicle growth after seed treatment; assay type: in vivo, corn; details: high rates of 6BA (>10 ppm)
[4] = system: sweet corn (cv. Silver Queen); test: Petri plate study: seed treatment, coleoptile emergence at 10° C.; assay type: in vivo; details: petri plates at 10° C.
Protocol: as §1
Petri plate studies: Each standard petri plate (100 mm×50 mm) contained 1 blue Anchor germination circle (3¼ inches in diameter) drenched with 7 ml of de-ionized water cooled to 10° C. Each treatment consisted of 4 petri plates of 10 seeds each. After plating, the petri plates were placed in a Nalgene plastic container cooled to 10° C. This in turn was incubated in a 10° C. growth chamber with a 16 hour light cycle for the duration of the study. Counts were made by visually examining each seed for radicle and coleoptile protrusion. […]

Compound: C=C1C[C@]23C[C@@]1(O)CC[C@H]2[C@@]12C=C[C@H](O)[C@@](C)(C(=O)O1)[C@H]2[C@@H]3C(=O)O [GA3, (1α,2β,4aα,4bβ,10β)-2,4a,7-trihydroxy-1-methyl-8-methylenegibb-3-ene-1,10-dicarboxylic acid 1,4a-lactone]
Percent coleoptile emergence at 21 days after treatment ([1]; GA3 100 ppm): 1.2%

Radicle growth (seedlings): reduced radicle growth
Seedling quality (seedlings): substantially reduced seedling quality
Compound: c1ccc(CNc2ncnc3nc[nH]c23)cc1 [6BA, N^6-phenylmethyl-1H-purin-6-amine]
Percent coleoptile emergence at 21 days after treatment ([1]; 6BA 10 ppm): 3.7%
Percent coleoptile emergence at 22 days after treatment ([1]; 6BA 10 ppm, 22 days): 6.2%
Coleoptile length above ground (mm) at 32 days after treatment ([1]; 6BA 10 ppm, 32 days): 17.1 mm
Length of the emerged coleoptiles at 32 days after treatment, compared to the control ([1]; 6BA, 32 days): no significant effect compared to the control
Percent coleoptile emergence at 12 days after treatment [2]: 32%
Coleoptile length (cm) at 22 days after treatment [3]: 2.17 cm
Radicle length (cm) at 22 days after treatment [3]: 2.78 cm

Compound: O=C(Nc1ccccc1)Nc1ccnc(Cl)c1 [CPPU, 1-(2-chloro-4-pyridyl)-3-phenylurea]
Percent coleoptile emergence at 14 days after treatment ([4]; CPPU 1 ppm): 0%
Percent coleoptile emergence at 14 days after treatment ([4]; CPPU 10 ppm): 4%
